# Tested on: anti-T7 antibodies
# Assay: T7 ELISA of serum from cured mice
# Format: in vivo, SKH1/hr mice
# Description: Blood (˜50-100 μl) 1 s taken by tail bleeding the mice and is collected into 0.8 ml MiniCollect® Z Serum Separator tubes that are coated with spray-dried clot activator (Greiner bio-one Cat. Num. 450472) and are spun at 3000 rpm in a microfuge at room temperature for 10 min. The serum is collected and stored at 4° C. for analysis of anti-T7 antibodies by ELISA.
# Preparation of T7 ELISA plates: T7 cells are grown to 90% confluence. The medium is aspirated and the cells are washed once with ice-cold PBS. T7 cells are harvested by scraping in PBS supplemented with protease inhibitor cocktail (PIC) and disrupted by sonication at 4° C. for 1-2 min. The T7 lys ate solution is supplemented with bicarbonate buffer (pH 9.6) containing PIC to a final volume of 40 ml and 70 μl/well is added to each well in a 96 well plate (Nunc, Invitro Technologies Cat. Num. 442404). The plates are dried overnight at 37° C.
# The following day, the plates are blocked with 10% (w/v) skim milk in PBS for 1 h at room temperature. Meanwhile mouse serum is prepared by diluting 1:7 to 1:413343 in 3-fold dilutions in PBS/0.01% Tween20 (v/v)/1% (w/v) skim milk for the IgG2a plate and 1:10 10 […] in 3-fold dilutions for the IgG1 plate. […] Spectrophotometric readings are taken on an ELISA plate reader at 405 nm and graphs are generated using Graphpad Prism Version 5.01 software. […]
structure (smiles),measurement,setting,value
C/C=C(/C)C(=O)O[C@H]1C(C)=C[C@]23C(=O)[C@@H](C=C(CO)[C@@H](O)[C@]12O)[C@H]1[C@@H](C[C@H]3C)C1(C)C [ingenol mebutate],IgG1 and IgG2a anti-T7 antibodies vs naïve mice,"cured female mice bled 107 days post treatment, 0.25% topical",significantly more
same,anti-tumour antibodies,"separate group, day 156 post treatment",barely detectable
